Test results as given in patent US20090221702A1, “COMPOUNDS” (priority 2005, published 2009).
Entries after “also recorded” stand apart in the source; their conditions may differ.

Key:
Type in all cases: cell-based
[1] = system: NIH3T3 fibroblasts; experiment: MTT assay; conditions: 50 μM
Source text: However its inhibitory effects on stimulated cells were not as strong. The methods used were as for Example 2.

[2] = target: T1, PKB (Mus musculus, UniProt P31750); experiment: Western blotting of the phospho-Akt content (FIG. 5); conditions: NIH3T3 cells, method as for FIG. 2
T1 construct: endogenous in cells; host or cells: NIH3T3
Experimental: (§1) In a typical method, NIH3T3 cells were grown in media (GibcoBRL) containing 10% NCS to near confluency in six well plates. The cells were starved using 0.5% serum for 2-3 days. The media was then removed and replaced with serum free media for 15 minutes. Subsequently, 1% NCS was added to reaction wells, and 0%, 1% and 10% NCS to control wells. After 20 minutes incubation, the compound was added, and the wells incubated for a further 15 minutes. Media was removed and sample buffer was added and the cells lysed, boiled, centrifuged.
(§2) Samples were subjected to gel electrophoresis by 10% SDS-PAGE and then Western blotted on to PVDF membrane (Biorad) according to standard protocols. Western blots were probed using primary antibodies against PKB purchased from New England Biolabs and secondary antibodies of goat anti-rabbit IgG coupled to horseradish peroxidase (Amersham). The membranes were then developed using a freshly prepared ECL solution according to standard protocols.
Western blotting of the phospho-Akt content was also monitored. The methodology used was the same as above.

[3] = system: PKB; experiment: Immunofluorescence microscopy with phospho-specific Ser473 PKB antibody in NIH 3T3 or Cos6 fibroblasts; conditions: for phosphorylation of PKB on S473 by compound alone: 10 min, starved Cos6 cells, without any serum
Experimental: We therefore tested the compound's effect on PKB S473 phosphorylation by immunofluorescence microscopy with a phospho-specific PKB antibody.
(§3) NIH 3T3 of Cos6 fibroblasts growing on PLL coated coverslips in DMEM containing 10% FCS were starved for 24 hours. Stimulation with c48/80 [10 μg/ml] was always carried out in the presence of 1% FCS for 10 min. Whereas cells growing in DMEM completely depleted of serum were used for experiments with cQ [15 μg/ml]. Where indicated, cells were pretreated with 100 μM LY294002 for 30 min or 500 nM RV001 for 15 min. After treatment cells were washed with PBS, fixed with 4% PFA and permeabilised with 0.25% Triton-X/PBS and washed extensively. After blocking in 1% BSA, cells were phalloidin stained and/or incubated with phospho-specific Ser473 PKB antibody (Cell Signalling) at 4° C. over night and a Fluorescein (FITC)—conjugated goat anti-mouse IgG (Jackson Immuno Research) at room temperature for 1 h. Nuclei were stained with Dapi. Coverslips were mounted on Mowiol containing slides and sealed before analysing on a Nikon Microscope.

[4] = target: T1, PKB; experiment: Western blot monitoring PKB modulation in NIH3T3 cells (FIG. 2); conditions: 1% NCS, various concentrations, 15 minutes
Experimental: PKB is a protein downstream effector of PI3K, and becomes phosphorylated on (residues required for its activity) in response to the activation of PI3K. Natal Calf Serum (NCS) is a stimulator of PI3K and thus subsequently results in PKB activation. Therefore the positive control used in experiments is 10% serum and a negative control used is provided with no serum at all.
as §1, §2

[5] = system: Cos6 fibroblasts; experiment: Phalloidin staining of F-actin / actin remodelling in starved Cos6 fibroblasts; conditions: for insulin-stimulated actin remodelling: 15 μg/ml cQ and 5 μg/ml insulin
Experimental: as §3

T1 sequence (P31750 whole entry): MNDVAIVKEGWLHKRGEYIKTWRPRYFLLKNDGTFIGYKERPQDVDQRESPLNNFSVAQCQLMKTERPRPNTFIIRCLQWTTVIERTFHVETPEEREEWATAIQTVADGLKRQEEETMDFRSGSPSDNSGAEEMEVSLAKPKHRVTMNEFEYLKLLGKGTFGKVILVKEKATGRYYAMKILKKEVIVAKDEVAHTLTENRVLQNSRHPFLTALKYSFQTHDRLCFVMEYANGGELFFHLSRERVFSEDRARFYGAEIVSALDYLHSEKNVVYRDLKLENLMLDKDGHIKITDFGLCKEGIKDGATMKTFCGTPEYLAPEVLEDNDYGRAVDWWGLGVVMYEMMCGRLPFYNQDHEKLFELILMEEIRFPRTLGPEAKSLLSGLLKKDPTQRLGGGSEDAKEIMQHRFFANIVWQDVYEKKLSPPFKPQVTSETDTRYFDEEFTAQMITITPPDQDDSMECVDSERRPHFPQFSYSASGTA

| SMILES | cytotoxicity (MTT assay) [1] | activation of PKB (phospho-Akt content, western blots, FIG. 5) [2] | Akt/PKB phosphorylation in starved cells ([3]; 1 μM, starved cells) | inhibitory effects on Akt/PKB phosphorylation in stimulated cells ([3]; 1 μM, stimulated cells, compared with 50 μM) | Akt/PKB phosphorylation in Insulin stimulated cells ([3]; 50 μM, Insulin stimulated cells) | response with PTEN inhibition (increased PI(3,4,5)P3 levels) ([3]; 50 μM, PTEN inhibition) | S473 phosphorylation with PI3-kinase inhibition ([3]; 50 μM, Wortmannin or LY294002) | Akt/PKB phosphorylation on S473 in starved cells ([3]; 50 μM, starved cells) | effect on PKB (phosphorylation of PKB, western blots, FIG. 2) [4] | PKB activation with PTEN inhibitor RV001 (increased PI(3,4,5)P3 levels) ([3]; 15 μg/ml cQ, 500 nM RV001 pretreatment, 0.2 μg/ml insulin, listed as cQ) | compound-induced PKB phosphorylation after PI3-kinase inhibition ([3]; 15 μg/ml cQ, 30 min preincubation with 100 μM LY294002, listed as cQ) | effect of pretreatment on activation of PKB by serum ([3]; 15 μg/ml, 10% FCS, starved cells) | phosphorylation of PKB on S473 by compound alone ([3]; 15 μg/ml) | phosphorylation of PKB on S473 by compound alone ([3]; 15 μg/ml, listed as cQ) | effect of serum on compound-induced PKB activation ([3]; increasing concentrations of serum) | insulin-stimulated actin remodelling ([5]; 10 min) | insulin-stimulated actin remodelling ([5]; 10 min, listed as cQ) | stress fibers in starved fibroblasts ([5]; 15 μg/ml, 10 min, starved Cos6) | cytoskeleton reorganisation, dependence on PI3-kinase ([5]; 15 μg/ml, preincubation with 100 μM LY294002 for 30 min, listed as cQ) | F-actin organisation after treatment ([5]; 15 μg/ml, starved Cos6) |
| --- | --- | --- | --- | --- | --- | --- | --- | --- | --- | --- | --- | --- | --- | --- | --- | --- | --- | --- | --- | --- |
| Oc1ccc(CCCl)cc1Cc1cc(CCCl)ccc1O [Compound C, 3,3′-Methylenebis[1-(2-chloroethyl)-4-hydroxybenzene]] | cytotoxic effects | can activate PKB | still activatory on its own | not as strong | inhibitory on Akt/PKB phosphorylation | inhibited the response | increase of phosphorylation at this site | activate Akt/PKB phosphorylation on S473 |  |  |  |  |  |  |  |  |  |  |  |  |
| COc1c(CO)cc(C)cc1CO [Compound F, 2,6-Bis(hydroxymethyl)-4-anisole] |  | can activate PKB |  |  |  |  |  |  | activators |  |  |  |  |  |  |  |  |  |  |  |
| Oc1ccc(CCCl)cc1 [Compound Q] |  | can activate PKB |  |  |  |  |  |  |  | indirectly inhibits PKB activation after cQ challenge; also recorded: inhibited PI(3,4,5)P3 mediated PKB activation | strongly increased cQ induced PKB phosphorylation; also recorded: increased cQ induced PKB phosphorylation | completely abolished the activation of PKB by 10% FCS | induces phosphorylation of PKB | sufficient to induce phosphorylation of PKB on S473 residue | increasing concentrations of serum inhibit cQ induced PKB activation | inhibits insulin-stimulated actin remodelling | counteract insulin-stimulated actin remodelling; also recorded: interferes with insulin-stimulated stress fiber breakdown | induces the loss of stress fibers in starved fibroblasts | capable of reorganising the cytoskeleton independent of PI3-kinase | produces a disorganised cytoplasmic F-actin and an actin ring juxtaposed to the plasma membrane |
